Source: patent publication US5993860A, “NSADI delivery employing a powdered hydrocolloid gum obtainable from higher plants” (Venture Lending, priority 1997, dated 1999)
“And” between values parts separate entries of the source, which are not always exact repeats. Equal values may be shown once.

Experiments:
[1] = aspirin-induced gastric ulcer model in rats (ulcer severity grade); assay type: in vivo, rat (Sprague-Dawley male)
Method: Tests were conducted in the aspirin-induced gastric ulcer model. Rats were dosed as indicated below. Five hours after dosing, rats were sacrificed and stomachs were examined for the presence of gastric lesions. A total of 6 treatments were tested. Each treatment was tested in 12 rats. The treatments were prepared immediately prior to use. The aspirin treatments were prepared by suspending 2.00 grams of fine mesh aspirin in 100 ml water (plus 0.1% Tween 80) and then adding the specified amount (i.e. 0, 0.10, 1.00, or 5.00 grams) of Guar gum. The Guar gum 5.0% alone treatment was prepared as above except the aspirin was omitted. All dosing preparations were warmed to about 100° C.; uniformity of suspensions was ensured by constant stirring. Sprague-Dawley male rats, 148 to 190 grams, were individually-housed under standard Vivarium conditions. After arrival, rats were allowed to acclimate in house for a minimum of 5 days before initiation of testing. Rats were fasted (water ad libitum) for 18 hours prior to testing. Treatments 1-6, assigned to rats in random fashion, were administered orally (gavage) at the rate of 10 ml/kilogram (kg). Five hours after treatment, each rat was sacrificed by carbon dioxide inhalation. The abdomen was opened. The stomach was removed, opened along the greater curvature, examined for the presence of lesions, and assigned a severity grade according to the following scale: 0 No lesions 1<5 lesions, at least 1 lesion<2 mm 2<5 lesions, at least 1 lesion>2 mm 3 5 to 10 lesions, all<2 mm 4 5 to 10 lesions, at least 1 lesion>2 mm 5 >10 lesions, all<2 mm 6 >10 lesions, at least 1 lesion>2 mm In order to eliminate bias and reduce subjective variation, all ulcer grading in the study was performed in single-blind fashion by the same well-experienced grader. For each stomach, the severity score was recorded. Data are expressed using the absolute values. […] Statistical significance of differences between means were determined by analysis of variance followed by Neumann-Kuels multiple comparisons test.

[2] = ketoprofen-induced gastric damage in rats; assay type: in vivo, rat (male Wistar); settings: ketoprofen 100 mg/kg oral; 5 h after dosing; 15 rats
Method: In this example a dose of ketoprofen (100 mg/kg) was administered to rats to induce gastric damage and guar gum was coadministered to determine its effect. Both the ketoprofen and guar gum were administered as an aqueous mixture.
Seventy-five male Wistar rats each approximately 6 weeks of age and ranging in weight from 206 g to 233 g were housed 5 to a cage in suspended polypropylene cages with wire grid floors. The rats had access to tap water and were fed a standard certified laboratory rodent diet (RM1(E)SQC), ad libitam. Lighting in the animal room was controlled to give 12 hours light (0700-1900 hours) and 12 hours dark each day. The room temperature and relative humidity controls were set at 21° C.±3° C. and 50% ±15% respectively.
After an acclimatization period of 3 days following the day of arrival, the animals were randomized into groups according to bodyweight using random numbers tables so that the group mean bodyweights were approximately equal. Including the day of randomization, there were a further 3 days of acclimatization prior to dosing. […]
Five hours after dosing, the rats were sacrificed by carbon dioxide asphyxiation and the stomachs removed. Each stomach was opened along the greater curvature and examined macroscopically for damage in the glandular portion; any damage was subjectively scored using the following system: […]

Compound | Ulcer Grade, mean ([1]; Table 5, severity scale 0-6, 5 h after oral gavage, 10 ml/kg, 12 rats) | stomachs with ulcer severity scores of 5 or greater ([1]; number of rats of 12) | mean ulcer severity (mean ± s.e.m.) ([1]; severity scale 0-6, 5 h after dosing) | Group mean score for gastric damage [2]
CC(=O)Oc1ccccc1C(=O)O [Aspirin, acetylsalicylic acid] | 5.8 | 11 of the 12 | 5.8 and 5.75±0.18 | –
CC(C(=O)O)c1cccc(C(=O)c2ccccc2)c1 (stereo not shown) [Ketoprofen] | – | – | – | 13.1
